Each molecule was assayed against T1, Tyrosine-protein phosphatase non-receptor type 1 (Homo sapiens, UniProt P18031) (assay: In Vitro Assay). Details: pH 7.
T1 sequence (P18031 whole entry): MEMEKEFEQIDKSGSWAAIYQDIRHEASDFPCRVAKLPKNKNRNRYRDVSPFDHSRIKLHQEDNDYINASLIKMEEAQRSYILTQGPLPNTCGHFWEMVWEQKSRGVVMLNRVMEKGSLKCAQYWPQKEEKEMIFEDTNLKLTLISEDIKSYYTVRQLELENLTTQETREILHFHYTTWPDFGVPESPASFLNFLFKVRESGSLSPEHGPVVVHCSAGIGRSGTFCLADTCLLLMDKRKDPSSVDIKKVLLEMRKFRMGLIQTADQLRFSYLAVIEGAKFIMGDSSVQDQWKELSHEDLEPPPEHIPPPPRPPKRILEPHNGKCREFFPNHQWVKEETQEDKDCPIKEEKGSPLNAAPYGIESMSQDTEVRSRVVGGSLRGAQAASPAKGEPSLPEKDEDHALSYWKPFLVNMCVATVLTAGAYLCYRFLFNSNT
Description: The effect of the test compounds on PTP1B was studied by preincubating the test compound with enzyme in the reaction system for 10 min and determining the residual enzyme activity according to the Goldstein method.

Row | IC50 | Ki | SMILES
1 | 88 µM | 63 µM | COc1cc(C=O)ccc1C1=NOC(n2ccnc2)C1 (stereo not given) [PTP1B Inhibitor, 14]
2 | 165 µM | 135 µM | COC(=O)C1C(c2ccc(C=O)cc2OC)=NOC1c1ccccc1 (stereo not given) [PTP1B Inhibitor, 15]
3 | 70 µM | 30 µM | COc1c(C2=NOC(c3ccccc3)C2)ccc2c1C=CC(C)(C)O2 (stereo not given) [PTP1B Inhibitor, 5]
4 | 67 µM | 48 µM | COc1ccc(C2CC(c3ccc(C=O)cc3OC)=NO2)cc1 (stereo not given) [PTP1B Inhibitor, 11]
5 | 91 µM | 56 µM | COc1ccc(C2CC(c3ccc4c(c3OC)C=CC(C)(C)O4)=NO2)cc1 (stereo not given) [PTP1B Inhibitor, 6]
6 | 69 µM | 48 µM | COc1cc(C=O)ccc1C1=NOC(c2ccccc2)C1 (stereo not given) [PTP1B Inhibitor, 10]
7 | 62.7 µM | 25 µM | CC(=O)Oc1ccc(C2=NOC(c3ccccc3)C2)c(OC(C)=O)c1 (stereo not given) [PTP1B Inhibitor, 19]
8 | 87 µM | 34 µM | COc1c(C2=NOC(c3ccccn3)C2)ccc2c1C=CC(C)(C)O2 (stereo not given) [PTP1B Inhibitor, 7]
9 | 275 µM | 150 µM | COc1cc(C=O)ccc1C1=NOC(c2ccncc2)C1 (stereo not given) [PTP1B Inhibitor, 13]
10 | 485 µM | 170 µM | COc1cc(C=O)ccc1C1=NOC(c2ccccn2)C1 (stereo not given) [PTP1B Inhibitor, 12]

Reference: BindingDB's records for doi:10.1007/s00044-007-9043-6 (Central Drug Research Institute, 2008)
